Holding throughout (format): cell-based, human
Data set [1] relates to TLOs. The data set can be described thus: CHIR withdrawal from TLOs cultured in CK-DCI. Particulars: 1 to 5 days after withdrawal of CHIR; Ki67, cCASP3, AT2 marker RT-PCR. Here is the method: As removing WNT signaling has been reported to induce AT2 maturation in alveolospheres,^26,27 we withdrew CHIR.
Matrigel embedded lung organoids can be used for TLO generation when they reach d42 of development. Media was removed from the transwell and 1 ml of 2 mg/ml dispase (Corning) was added to release lung organoid from the Matrigel for 30-45 minutes in normoxic incubator. The organoid was transferred to a 15 ml conical tube and washed with stop media (DMEM (Corning), 5% FBS (Atlanta Biologicals; Flowery Branch, Georgia), 1% Glutamax (ThermoFisher)) to neutralize Dispase, then centrifuged at […] for 5 minutes. The pellet was incubated with 1 ml of 0.05% Trypsin/EDTA in normoxic incubator for 10-12 minutes with occasional pipetting with a P1000 pipet tip. Single cell dissociation was verified using a bright field microscope. If a single cell suspension was not obtained after 12 minutes, cells were washed with stop media and incubated for additional 5 minutes with 0.05% Trypsin/EDTA. Cells were counted using a hemocytometer and 400 cells/μl of undiluted Matrigel were plated in a well of a 12-well non-tissue culture plate. […]

The test system of data set [2] is TLOs. The data set can be described thus: Distal differentiation of TLOs (removal of CHIR and KGF, TGF-b blockade with SB). Conditions: removing CHIR and KGF and blocking TGF-b signaling using SB (DCI+SB). Here is the method:
We next used empirical approaches to differentiate the cells into more mature proximal of distal lineages.
(§1) Total RNA was extracted according to manufacturer's instructions using the Direct-zol™ RNA Microprep (Zymo Research, Irvine, CA), and 500 ng of total RNA was reverse transcribed using the qScript™ XLT cDNA SuperMix (Quantabio, Beverly, MA). Technical triplicates of […] reaction (for use in Applied Biosystems QuantStudio7 384-well System, Waltham, MA) were prepared with 3 μl of diluted cDNA and run for 40 cycles. Relative gene expression was calculated based on the average cycle (Ct) value, normalized to GAPDH as the internal control and reported as fold change (2(−ddCT)).

The subject of data set [3] is HPS1−/− TLOs. The data set can be described thus: ER stress induction by tunicamycin, HPS1-/- TLOs. As to the method: (§2) We challenged for 5 hours with tunicamycin, a protein glycosylation inhibitor that prevents protein maturation and causes ER stress.^65 and measured ER stress components after 5 hrs, upon removal tunicamycin, and after 1 week (FIG. 7b). […] Of particular interest is ATF4, as ATF4 is an effector protein implicated not only in the UPR^ER via PERK phosphorylation but also in the integrated stress response (ISR)^66.
as §1

In another data set the test system is WT (R2) TLO. The data set can be described thus: ER stress induction by tunicamycin, WT TLOs. Particulars: one week after removal of tunicamycin (5 hour challenge). Here is the method:
as §2, §1

The test system of a further data set is ABCA3−/− TLOs. The data set can be described thus: ER stress induction by tunicamycin, ABCA3-/- TLOs. Particulars: one week after removal of tunicamycin; compared with HPS1−/− TLOs. Here is the method: as §2, §1
For data set [4], the system named is HPS1−/− TLOs. Conditions: one week after removal of tunicamycin. As to the method: as §2

As to `Cc1c[nH]c(-c2cnc(NCCNc3ccc(C#N)cn3)nc2-c2ccc(Cl)cc2Cl)n1` [CHIR, CHIR99021], in the data set with TLOs [1], the “effect of CHIR withdrawal on TLOs” value was “disintegration, proliferation arrest (FIG. 3b), apoptosis (FIG. 3c) and loss of AT2 markers”.

For the compound `NC(=O)c1ccc(-c2nc(-c3ccc4c(c3)OCO4)c(-c3ccccn3)[nH]2)cc1` [SB, SB431542], the “expression of AT2 and AT1 markers” value with TLOs [2] was “further upregulation of not only AT2, but also of AT1 markers”.

As to tunicamycin, the “expression of ER stress mediators (BIP, XBP1 splicing)” value in the data set with HPS1−/− TLOs [3] (after 5 hrs tunicamycin challenge) is “significantly increased expression of BIP and of XBP1 splicing”. Moreover, the “expression of ER stress mediators (XBP1 splicing, CHOP, ATF4)” value in the data set on HPS1−/− TLOs [3] (one week after removal of tunicamycin (5 hour challenge)) is “maintained elevated splicing of XBP1 but entirely failed to upregulate CHOP and ATF4”. The “expression of ER stress mediators (XBP1, BIP, CHOP, ATF4)” value in the data set on WT (R2) TLO is “expression of BIP, CHOP and ATF4 were strikingly increased”. Besides, the “expression of ER stress mediators” value in the data set with ABCA3−/− TLOs is given as “A similar response, though less pronounced”. In addition, the apoptosis result in the data set with HPS1−/− TLOs [4] was “increased apoptosis”.

Values taken from patent US20250122479A1, “GENERATION OF LUNG ORGANOIDS FROM PLURIPOTENT STEM CELLS AND USE THEREOF” (THE TRUSTEES OF COLUMBIA UNIVERSITY IN THE CITY OF NEW YORK, priority 2022, published 2025).
